# Assay results from article PMC9762789, “Chromone-based monoamine oxidase B inhibitor with potential iron-chelating activity for the treatment of Alzheimer’s disease” (Journal of Enzyme Inhibition and Medicinal Chemistry, 2022).
# Like-named read-outs stand apart in the source and are kept apart here.
# Key:
# [1] = target: T1, MAO-B (Homo sapiens, UniProt P27338); assay: hMAO-B inhibition assay; format: biochemical; settings: for inhibition at 0.1 µM: hMAO-B, 100 nM, read-out: Inhibitory rate (%, 100 nM)
# T1 construct: purchased Sigma-Aldrich
# T1 sequence (P27338 1-520): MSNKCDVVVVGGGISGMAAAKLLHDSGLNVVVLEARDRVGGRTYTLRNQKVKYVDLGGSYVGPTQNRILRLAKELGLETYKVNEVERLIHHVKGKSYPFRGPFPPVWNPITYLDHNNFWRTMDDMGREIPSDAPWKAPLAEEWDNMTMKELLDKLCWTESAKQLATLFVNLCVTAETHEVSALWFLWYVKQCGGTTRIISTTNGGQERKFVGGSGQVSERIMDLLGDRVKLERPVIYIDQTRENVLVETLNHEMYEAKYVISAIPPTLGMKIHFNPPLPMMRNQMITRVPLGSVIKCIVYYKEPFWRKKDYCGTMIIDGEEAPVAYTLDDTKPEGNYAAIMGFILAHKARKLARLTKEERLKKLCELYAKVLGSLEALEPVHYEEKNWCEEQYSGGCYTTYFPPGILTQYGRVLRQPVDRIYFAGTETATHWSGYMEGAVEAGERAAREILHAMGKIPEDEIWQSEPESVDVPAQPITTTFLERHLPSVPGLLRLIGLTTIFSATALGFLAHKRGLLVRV
# Method: (§1) The reagents and enzymes (Human MAO-B and Human MAO-A) applied in this experiment were purchased from Sigma-Aldrich. According to the manuals, all components (substrate solution and enzyme solution) are diluted and placed aside for use. The detailed process has been mentioned in our early work[34].
# [2] = pKa determination by automated spectrophotometric titration; format: physicochemical; settings: 0.1 M KCl solution
# [3] = iron (III) affinity constants and pFe3+ by spectrophotometric titration; format: physicochemical; settings: for Log β1 / Log β2 / Log β3: DMSO: KCl (0.1 M) = 1:1.5 (v/v); for pFe^3+: calculated from Log β values obtained in DMSO: KCl (0.1 M) = 1:1.5 (v/v)
# [4] = target: T2, Human MAO-A (Homo sapiens, UniProt P21397); assay: hMAO-A inhibition assay; format: biochemical; settings: for inhibition at 10 µM: read-out: hMAO-A inhibitory rate at 10 μM, 10 μM (highest concentration tested)
# T2 construct: purchased Sigma-Aldrich
# T2 sequence (P21397 1-527): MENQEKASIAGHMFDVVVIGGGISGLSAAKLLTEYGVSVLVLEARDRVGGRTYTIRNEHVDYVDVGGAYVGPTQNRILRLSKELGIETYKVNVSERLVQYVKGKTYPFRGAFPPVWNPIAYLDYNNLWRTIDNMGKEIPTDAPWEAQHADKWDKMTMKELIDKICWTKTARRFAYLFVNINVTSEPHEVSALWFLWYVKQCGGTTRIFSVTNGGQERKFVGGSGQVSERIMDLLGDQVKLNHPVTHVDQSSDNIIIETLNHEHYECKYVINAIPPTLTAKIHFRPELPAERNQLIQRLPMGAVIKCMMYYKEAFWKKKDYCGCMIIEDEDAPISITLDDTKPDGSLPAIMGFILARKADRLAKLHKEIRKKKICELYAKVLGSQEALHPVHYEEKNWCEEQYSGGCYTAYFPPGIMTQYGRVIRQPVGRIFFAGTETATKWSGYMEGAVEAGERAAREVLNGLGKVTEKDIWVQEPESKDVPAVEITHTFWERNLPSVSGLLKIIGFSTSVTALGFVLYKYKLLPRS
# Method: Further, the inhibitory activity of compounds against hMAO-A isoform was tested and calculated as a selectivity index [Selectivity index (SI): IC50 (hMAO-A)/IC50 (hMAO-B)].
# as §1
SMILES,IC50 [1] [nM],SI: hMAO-B selectivity index = IC50 (hMAO-A)/IC50 (hMAO-B) [1],inhibition at 0.1 µM [1] [%],pKa ([2]; read-out: pKa1),pKa ([2]; read-out: pKa2),melting point [°C],Log β1 [3],Log β2 [3],Log β3 [3],pFe^3+ [3],inhibition at 10 µM [4] [%],IC50 [4] [nM]
"Cc1c(O)c(=O)ccn1CCNC(=O)c1coc2ccccc2c1=O [Compound 8a, N-(2–(3-hydroxy-2-methyl-4-oxopyridin-1(4H)-yl)ethyl)-4-oxo-4H-chromene-3-carboxamide]",112 ± 1.3,>89,42.2 ± 3.7,3.29,9.67,268 to 270,13.67,25.22,34.95,18.68,< 20,–
"Cc1ccc2occ(C(=O)NCCn3ccc(=O)c(O)c3C)c(=O)c2c1 [Compound 8c, N-(2–(3-hydroxy-2-methyl-4-oxopyridin-1(4H)-yl)ethyl)-6-methyl-4-oxo-4H-chromene-3-carboxamide]",112 ± 5.7,>89,42.1 ± 0.8,3.26,9.69,265 to 267,13.86,25.07,33.48,17.19,< 20,–
"COc1ccc2c(=O)c(C(=O)NCCn3ccc(=O)c(O)c3C)coc2c1 [Compound 8d, N-(2–(3-hydroxy-2-methyl-4-oxopyridin-1(4H)-yl)ethyl)-7-methoxy-4-oxo-4H-chromene-3-carboxamide]",107 ± 5.6,>93,41.9 ± 1.4,3.2,9.6,248 to 250,13.82,25.31,34.23,18.18,< 20,–
"Cc1c(O)c(=O)ccn1CCNC(=O)c1coc2cc(OCc3ccc(F)cc3)ccc2c1=O [Compound 15e, 7-((4-Fluorobenzyl)oxy)-N-(2–(3-hydroxy-2-methyl-4-oxopyridin-1(4H)-yl)ethyl)-4-oxo-4H-chromene-3-carboxamide]",106.4 ± 0.2,>94,42.4 ± 2.1,2.89,9.57,246 to 248,13.24,24.65,34.50,18.52,< 20,–
"Cc1c(O)c(=O)ccn1CCNC(=O)c1coc2cc(OCc3cccc(Cl)c3)ccc2c1=O [Compound 15f, 7-((3-Chlorobenzyl)oxy)-N-(2–(3-hydroxy-2-methyl-4-oxopyridin-1(4H)-yl)ethyl)-4-oxo-4H-chromene-3-carboxamide]",129.5 ± 0.8,–,41.2 ± 2.8,3.35,9.52,230 to 232,13.79,25.03,33.91,18.09,< 20,–

# The remaining lines, values ahead:
IC50 [1] [nM],SI: hMAO-B selectivity index = IC50 (hMAO-A)/IC50 (hMAO-B) [1],inhibition at 0.1 µM [1] [%],pKa ([2]; read-out: pKa1),pKa ([2]; read-out: pKa2),melting point [°C],Log β1 [3],Log β2 [3],Log β3 [3],pFe^3+ [3],inhibition at 10 µM [4] [%],IC50 [4] [nM],SMILES
82.78 ± 0.7,>120,49.5 ± 0.3,2.95,9.82,251 to 253,13.58,25.38,35.34,18.61,< 20,–,"Cc1ccc2c(=O)c(CNCCn3ccc(=O)c(O)c3C)coc2c1 [Compound 17b, 3-Hydroxy-2-methyl-1–(2-(((7-methyl-4-oxo-4H-chromen-3-yl)methyl)amino)ethyl)pyridin-4(1H)-one]"
86.3 ± 0.7,>116,44.23 ± 0.1,2.75,9.76,259 to 261,13.31,25.00,34.07,17.55,< 20,–,"Cc1ccc2occ(CNCCn3ccc(=O)c(O)c3C)c(=O)c2c1 [Compound 17c, 3-Hydroxy-2-methyl-1–(2-(((6-methyl-4-oxo-4H-chromen-3-yl)methyl)amino)ethyl)pyridin-4(1H)-one]"
88.7 ± 5.3,>112,46.4 ± 1.3,2.76,9.83,267 to 269,13.32,25.08,34.89,18.12,< 20,–,"COc1ccc2occ(CNCCn3ccc(=O)c(O)c3C)c(=O)c2c1 [Compound 17e, 3-Hydroxy-1–(2-(((6-methoxy-4-oxo-4H-chromen-3-yl)methyl)amino)ethyl)-2-methylpyridin-4(1H)-one]"
76.4 ± 3.8,10.4,49 ± 0.6,2.73,9.69,169 to 171,13.20,24.70,33.77,17.45,–,795 ± 0.7,"Cc1c(O)c(=O)ccn1CCNCc1coc2cc(OCc3ccccc3)ccc2c1=O [Compound 17f, 1–(2-(((7-(Benzyloxy)-4-oxo-4H-chromen-3-yl)methyl)amino)ethyl)-3-hydroxy-2-methylpyridin-4(1H)-one]"
78 ± 4.3,21.4,55.8 ± 2.7,2.68,9.62,211 to 213,13.02,24.75,33.78,17.66,–,1666 ± 5.7,"Cc1cccc(COc2ccc3c(=O)c(CNCCn4ccc(=O)c(O)c4C)coc3c2)c1 [Compound 17g, 3-Hydroxy-2-methyl-1–(2-(((7-((3-methylbenzyl)oxy)-4-oxo-4H-chromen-3-yl)methyl)amino)ethyl)pyridin-4(1H)-one]"
–,–,39.48 ± 0.3,2.58,9.68,215 to 217,12.93,24.99,34.10,17.81,–,–,"Cc1c(O)c(=O)ccn1CCNCc1coc2cc(OCc3cccc(F)c3)ccc2c1=O [Compound 17i, 1–(2-(((7-((3-Fluorobenzyl)oxy)-4-oxo-4H-chromen-3-yl)methyl)amino)ethyl)-3-hydroxy-2-methylpyridin-4(1H)-one]"
102 ± 3.2,>99,46 ± 0.7,2.76,9.53,218 to 220,13.13,24.78,33.73,17.89,< 20,–,"Cc1c(O)c(=O)ccn1CCNCc1coc2cc(OCc3ccc(F)cc3)ccc2c1=O [Compound 17j, 1–(2-(((7-((4-Fluorobenzyl)oxy)-4-oxo-4H-chromen-3-yl)methyl)amino)ethyl)-3-hydroxy-2-methylpyridin-4(1H)-one]"
114 ± 3.8,>88,43.1 ± 2,2.53,9.43,226 to 228,12.99,24.76,33.88,18.31,< 20,–,"Cc1c(O)c(=O)ccn1CCNCc1coc2cc(OCc3cccc(Cl)c3)ccc2c1=O [Compound 17k, 1–(2-(((7-((3-Chlorobenzyl)oxy)-4-oxo-4H-chromen-3-yl)methyl)amino)ethyl)-3-hydroxy-2-methylpyridin-4(1H)-one]"
